Columns and labels:
[1] = Cmax in Sprague-Dawley rat at 2 mg/kg, iv measured for 15 to 1440 mins by LC-MS/MS analysis; assay type: ADME, organism-based; conditions: in vivo, time 15-1440 min
[2] = Inhibition of neuraminidase in Influenza A virus A/Babol/36/2005 H3N2 using MUNANA as substrate incubated for 40 mins by […] based assay
[3] = MRT (0 to t) in Sprague-Dawley rat at 20 mg/kg, po measured for 15 to 1440 mins by LC-MS/MS analysis; assay type: ADME, organism-based; conditions: in vivo, time 15-1440 min
Influenza A virus [4] = assay: Antiviral activity against Influenza A virus A/WSN/67/05 H3N2 infected in MDCK cells assessed as inhibition of plaque formation measured after 2 days; conditions: A/WSN/67/05 H3N2, MDCK, 48 h
[5] = MRT (0 to infinity) in Sprague-Dawley rat at 20 mg/kg, po measured for 15 to 1440 mins by LC-MS/MS analysis; assay type: ADME, organism-based; conditions: in vivo, time 15-1440 min
[6] = Tmax in Sprague-Dawley rat at 2 mg/kg, iv measured for 15 to 1440 mins by LC-MS/MS analysis; assay type: ADME, organism-based; conditions: in vivo, time 15-1440 min
[7] = Acute toxicity in Kunming mouse assessed as signs of disheveled fur at 1000 mg/kg, IG measured for 1 week; assay type: organism-based; conditions: in vivo, po, 168 h, time 1 weeks
[8] = Half life in Sprague-Dawley rat at 2 mg/kg, iv measured for 15 to 1440 mins by LC-MS/MS analysis; assay type: ADME, organism-based; conditions: in vivo, time 15-1440 min
[9] = Inhibition of neuraminidase in Influenza A virus A/Goose/Guangdong/SH7/2013 H5N1 using MUNANA as substrate incubated for 40 mins by […] based assay
[10] = Metabolic stability in human plasma assessed as compound remaining at 2 uM incubated upto 120 mins by LC-MS/MS analysis; assay type: ADME, cell-free; conditions: read-out: Stability
in vivo [11] = conditions: Sprague-Dawley, rat, po, 20 mg/kg
Influenza A virus [12] = assay: microbe, parasite or virus in culture; conditions: A/Goose/Guangdong/SH7/2013 H5N1, CEF, 48 h
[13] = MRT (0 to t) in Sprague-Dawley rat at 2 mg/kg, iv measured for 15 to 1440 mins by LC-MS/MS analysis; assay type: ADME, organism-based; conditions: in vivo, time 15-1440 min
[14] = Oral bioavailability in Sprague-Dawley rat at 20 mg/kg measured for 15 to 1440 mins by LC-MS/MS analysis; assay type: ADME, organism-based; conditions: in vivo, time 15-1440 min
[15] = Cytotoxicity against CEF cells incubated for 48 hrs by CCK8 assay; assay type: toxicity, cell-based, Gallus gallus; conditions: chicken
[16] = Metabolic stability in human plasma assessed as half life at 2 uM incubated upto 120 mins by LC-MS/MS analysis; assay type: ADME, cell-free
[17] = Acute toxicity in Kunming mouse assessed as signs of sedation at 1000 mg/kg, IG measured for 1 week; assay type: organism-based; conditions: in vivo, po, 168 h, time 1 weeks
in vivo [18] = conditions: Sprague-Dawley, rat, iv, 2 mg/kg
[19] = MRT (0 to infinity) in Sprague-Dawley rat at 2 mg/kg, iv measured for 15 to 1440 mins by LC-MS/MS analysis; assay type: ADME, organism-based; conditions: in vivo, time 15-1440 min
[20] = Metabolic stability in human liver microsomes assessed as compound remaining incubated for 60 mins by LC-MS/MS analysis; assay type: ADME, Microsome; conditions: 1 h
in vivo [21] = conditions: Sprague-Dawley, rat, iv, 2 mg/kg; remark: listed apart in the source
[22] = Acute toxicity in Kunming mouse assessed as signs of appetite loss at 1000 mg/kg, IG measured for 1 week; assay type: organism-based; conditions: in vivo, po, 168 h, time 1 weeks
[23] = Cytotoxicity against MDCK cells incubated for 48 hrs by MTT assay; assay type: toxicity, cell-based, Canis lupus familiaris; conditions: dog
Influenza A virus [24] = assay: microbe, parasite or virus in culture; conditions: A/PR/8/34 H1N1, MDCK, 48 h
Influenza A virus [25] = assay: microbe, parasite or virus in culture; conditions: A/Goose/Jiangsu/1306/2014 H5N8, CEF, 48 h
[26] = Clearance in Sprague-Dawley rat at 2 mg/kg, iv measured for 15 to 1440 mins by LC-MS/MS analysis; assay type: ADME, organism-based; conditions: in vivo, time 15-1440 min
[27] = Acute toxicity in Kunming mouse assessed as drug tolerance at 1000 mg/kg, IG measured for 1 week; assay type: organism-based; conditions: in vivo, po, 168 h, time 1 weeks
in vivo [28] = conditions: Sprague-Dawley, rat, po, 20 mg/kg; remark: listed apart in the source
[29] = Acute toxicity in Kunming mouse assessed as increase in body weight at 1000 mg/kg, IG measured for 1 week; assay type: organism-based; conditions: in vivo, po, 168 h, time 1 weeks
[30] = Apparent volume of distribution in Sprague-Dawley rat at 2 mg/kg, iv measured for 15 to 1440 mins by LC-MS/MS analysis; assay type: ADME, organism-based; conditions: in vivo, time 15-1440 min, read-out: Vz
[31] = Acute toxicity in Kunming mouse assessed as animal mortality at 1000 mg/kg, IG measured for 1 week; assay type: organism-based; conditions: in vivo, po, 168 h, time 1 weeks
[32] = Tmax in Sprague-Dawley rat at 20 mg/kg, po measured for 15 to 1440 mins by LC-MS/MS analysis; assay type: ADME, organism-based; conditions: in vivo, time 15-1440 min
in vitro [33] = conditions: human, liver microsomes
[34] = Half life in Sprague-Dawley rat at 20 mg/kg, po measured for 15 to 1440 mins by LC-MS/MS analysis; assay type: ADME, organism-based; conditions: in vivo, time 15-1440 min
in vitro [35] = conditions: human, liver microsomes; remark: listed apart in the source
[36] = Acute toxicity in Kunming mouse assessed as signs of convulsion movements at 1000 mg/kg, IG measured for 1 week; assay type: organism-based; conditions: in vivo, po, 168 h, time 1 weeks
[37] = Cmax in Sprague-Dawley rat at 20 mg/kg, po measured for 15 to 1440 mins by LC-MS/MS analysis; assay type: ADME, organism-based; conditions: in vivo, time 15-1440 min

CCC(CC)O[C@@H]1C=C(C(=O)O)C[C@H](NCc2ccc(OCc3cccc(B(O)O)c3)cc2Cl)[C@H]1NC(C)=O
Cmax [1]: 2520 ng/mL | IC50 [2]: 0.26 µM | MRT last [3]: 46.8 min | EC50 (Influenza A virus [4]): > 100 µM | MRT inf [5]: 54.6 min | Tmax [6]: 4.98 min | Activity [7]: Non-toxic | half-life [8]: 16.8 min | IC50 [9]: 0.017 µM | remaining at 2 h, 2 µM [10]: 104% | AUC(0-t) (in vivo [11]): 47 ng·h/mL | EC50 (Influenza A virus [12]): 5.41 µM | MRT last [13]: 9.6 min | bioavailability [14]: 0.65% | CC50 at 48 h [15]: > 200 µM | half-life at 2 µM [16]: > 289 min | Activity [17]: Non-toxic | AUC(0-inf) (in vivo [18]): 749 ng·h/mL | MRT inf [19]: 10.2 min | Stability [20]: 98.6% | AUC(0-t) (in vivo [21]): 747 ng·h/mL | Activity [22]: Non-toxic | EC50 at 48 h [23]: > 250 µM | EC50 (Influenza A virus [24]): 0.008 µM | EC50 (Influenza A virus [25]): 3.26 µM | clearance [26]: 45.5 mL/min/kg | Activity [27]: Non-toxic | AUC(0-inf) (in vivo [28]): 48.8 ng·h/mL | Activity [29]: Toxic | Vd [30]: 1.12 L/kg | Activity [31]: Non-toxic | Tmax [32]: 15 min | CLint scaled at 2 h (in vitro [33]): 12.2 mL/min/kg | half-life [34]: 41.4 min | microsomal CLint at 2 h (in vitro [35]): 13.6 µL/min/mg | Activity [36]: Non-toxic | Cmax [37]: 57.5 ng/mL
